Assay [1] concerns E. coli MG1655. The class given is cell-based.
The subject of assay [2] is S. typhimurium pyrCΔ73. The class given is cell-based, Salmonella typhimurium.
Assay [3] deals with E. coli strain 14443 (MG1655 (FB426)). The class given is cell-based.
Assay [4] relates to E. coli strain 14444 (MG1655 xylA). The class given is cell-based.
Assay [5] relates to E. coli strain 14445 (MG1655 himA). The class given is cell-based.
Assay [6] deals with E. coli strain 6320 (W3110). The class given is cell-based.
The subject of assay [7] is E. coli strain 6321 (MG1655). The class given is cell-based.
Assay [8] has as its system E. coli strain 6322 (EMG2 (K12, λF+)). The class given is cell-based. Note: key: '+' indicates that the organism tested was capable of utilizing the carbon source listed; '−' indicates that the organism tested was not capable of utilizing the carbon source listed; 'w' indicates weak positive reactions.
The subject of assay [9] is E. coli strain 11547 (O157:H7). The class given is cell-based.
Assay [10] relates to E. coli strain 13671 (O157:H? gur+). The class given is cell-based.
In assay [11] the test system is E. coli strain 13673 (O157). The class given is cell-based.
Assay [12] has as its system E. coli strain 13675 (O157). The class given is cell-based.
For assay [13], the system named is E. coli 287 (ATCC #11775). The class given is cell-based.
Assay [14] deals with E. coli MG1655. The class given is cell-based. This is another data set of the same source.
For assay [15], the system named is T. harzianum DAOM 190830. The class given is cell-based, Trichoderma harzianum.

With `Nc1ncnc2c1ncn2[C@@H]1O[C@H](CO)[C@@H](O)[C@H]1OP(=O)(O)O` [adenosine-2′-monophosphate], the “suitability as phosphorus source (growth, purple color)” value (shortened to “suitability as phosphorus source”) in assay [1] is reported as “positive”. Further, in assay [2], the “growth stimulation by supplement (well color)” value (“growth stimulation” below) was “turned weakly purple”.
As for `Nc1nc2c(ncn2[C@@H]2O[C@H](COP(=O)(O)O)[C@@H](O)[C@H]2O)c(=O)[nH]1` [guanosine 5′-monophosphate], the “suitability as phosphorus source” value in assay [1] was “positive”. In addition, the “growth stimulation” value in [2] is “turned weakly purple”.
With Tween-20, the carbon source utilization result in [3], in assay [4], in assay [5] and in assay [6] was “−” each time.
As for `CO[C@H]1O[C@H](CO)[C@H](O)[C@H](O)[C@H]1O` [α-methyl galactoside], the carbon source utilization result in [3], in assay [4], in assay [5], in [6], in assay [7] and in assay [8] was “+” each time. The carbon source utilization entry in assay [9], in [10], in [11] and in assay [12] was “+” in each case.
`Nc1ncnc2c1ncn2[C@@H]1O[C@H](COP(=O)(O)O)[C@@H](O)[C@H]1O` [adenosine 5′-monophosphate]: in assay [1], the “suitability as phosphorus source” value was “not suitable”. In [2], the “growth stimulation” value was “turned weakly purple”.
`Nc1ncnc2c1ncn2[C@@H]1O[C@H](CO)[C@@H](OP(=O)(O)O)[C@H]1O` [adenosine 3-monophosphate, adenosine 3′-monophosphate]: the “suitability as phosphorus source” value in assay [1] was “positive”. The “growth stimulation” value in assay [2] is given as “turned weakly purple”.
Regarding `C[C@H](O)C(=O)O` [L-lactic acid], the carbon source utilization entry in assay [3], in assay [4], in [5], in assay [6], in [7] and in assay [8] was “+” throughout. Besides, the carbon source utilization entry in [9], in [10], in [11] and in assay [12] was “+” each time.
Regarding `Nc1nc2c(ncn2[C@@H]2O[C@H](CO)[C@@H](O)[C@H]2OP(=O)(O)O)c(=O)[nH]1` [guanosine 2′-monophosphate], the “suitability as phosphorus source” value in [1] was “positive”. In [2], the “growth stimulation” value is “turned weakly purple”.
As for `O=c1ccn([C@@H]2O[C@H](CO)[C@@H](O)[C@H]2O)c(=O)[nH]1` [Uridine], the “carbon source utilization result” value in assay [13] was “positive”. In addition, the “suitability as nitrogen source (growth, purple color)” value (“suitability as nitrogen source” below) in assay [14] is on record as “not suitable”. In addition, in assay [2], the “growth stimulation” value is “turned purple”.
For the compound Maltotriose, the carbon source utilization entry in assay [3] is given as “+”; in assay [4] it was “−”; in assay [5], “−”; in assay [6], “+”; in assay [7], “+”; in [8], “+”. Besides, the carbon source utilization result in assay [9], in assay [10], in assay [11] and in assay [12] was “+” throughout. The “carbon source utilization, in words” value in assay [4] and in [5] was “negative” in each case.
Turning to `Nc1cc[nH]c(=O)n1` [cytosine], the “suitability as nitrogen source” value in assay [14] is given as “not suitable”. The “growth stimulation” value in assay [2] is “turned purple”.
`OC[C@@H](O)[C@H](O)[C@H](O)[C@@H](O)CO` [Dulcitol]: the carbon source utilization result is recorded as “−” in [3]; “−” in [4]; “−” in assay [5]; “−” in assay [6]; “+” in assay [7]; “−” in assay [8]. The carbon source utilization entry was “+” in assay [9], “+” in [10], “−” in assay [11] and “+” in assay [12].
On to Tween-80, for which the carbon source utilization result in [3] is on record as “−”; in assay [4], “−”; in [5] it was “−”; in assay [7], “+”. Besides, the “carbon source utilization result” value in assay [13] and in [15] was “positive” each time.
Regarding `O=C(O)C[C@@H](O)C(=O)O` [D-malic acid], the carbon source utilization entry in assay [3], in assay [4], in assay [5], in assay [6], in assay [7] and in assay [8] was “+” in each case. For the same compound, the carbon source utilization result in [9], in [10] and in assay [11] was “+” in each case.
Take `O=c1ccn([C@@H]2O[C@H](COP(=O)(O)O)[C@@H](O)[C@H]2O)c(=O)[nH]1` [uridine 5′-monophosphate]: the “suitability as phosphorus source” value in assay [1] is given as “positive”. Also, the “growth stimulation” value in assay [2] is reported as “turned purple”.
Turning to `CC(O)CO` (stereo not drawn) [1,2-propanediol], the carbon source utilization result in [3], in [4], in assay [5], in assay [6], in assay [7] and in assay [8] was “−” throughout. Moreover, the carbon source utilization result in assay [9], in [10], in assay [11] and in [12] was “−” in each case.
Consider `O=c1cc[nH]c(=O)[nH]1` [uracil], for which, in [14], the “suitability as nitrogen source” value is “not suitable”. In addition, the “growth stimulation” value in [2] was “turned purple”.
Turning to `OC[C@H]1O[C@@H](n2cnc3c(O)ncnc32)[C@H](O)[C@@H]1O` [Inosine], the “carbon source utilization result” value in [13] and in [15] was “positive” in each case. For the same compound, the “suitability as nitrogen source” value in [14] is on record as “not suitable”. For the same compound, the “growth stimulation” value in [2] is “turned weakly purple”.
As to `O=C(O)CC(O)C(=O)O` (racemic) [D,L-malic acid], the carbon source utilization result in [3], in [4], in [5], in assay [6], in [7] and in assay [8] was “+” in each case. Moreover, the carbon source utilization entry in assay [9], in [10], in assay [11] and in assay [12] was “+” in each case.
Turning to `O=c1ccn([C@@H]2O[C@H](CO)[C@@H](OP(=O)(O)O)[C@H]2O)c(=O)[nH]1` [uridine 3′-monophosphate], in assay [1], the “suitability as phosphorus source” value is listed as “positive”. Also, the “growth stimulation” value in assay [2] is “turned purple”.
As to `O=C(O)C[C@H](O)C(=O)O` [L-malic acid], the carbon source utilization result in [3], in assay [4], in assay [5], in assay [6], in [7] and in [8] was “+” each time. The carbon source utilization entry in assay [9], in [10], in assay [11] and in assay [12] was “+” in each case.
For `Nc1ccn([C@@H]2O[C@H](CO)[C@@H](O)[C@H]2OP(=O)(O)O)c(=O)n1` [cytidine 2′-monophosphate], the “suitability as phosphorus source” value in [1] is “not suitable”. Besides, the “growth stimulation” value in assay [2] is “turned purple”.
With `Nc1ccn([C@@H]2O[C@H](CO)[C@@H](OP(=O)(O)O)[C@H]2O)c(=O)n1` [cytidine 3′-monophosphate], the “suitability as phosphorus source” value in [1] is “positive”. Further, the “growth stimulation” value in [2] is listed as “turned purple”.
Turning to `Nc1ccn([C@@H]2O[C@H](COP(=O)(O)O)[C@@H](O)[C@H]2O)c(=O)n1` [cytidine 5′-monophosphate], in [1], the “suitability as phosphorus source” value is reported as “positive”. In [2], the “growth stimulation” value is “turned purple”.
Take `O=C1O[C@H]([C@@H](O)CO)[C@@H](O)[C@@H]1O` [L-galactonic acid γ-lactone]: the carbon source utilization result in [3], in assay [4], in assay [5], in assay [6], in assay [7] and in [8] was “+” throughout. The carbon source utilization entry in assay [9], in assay [10], in assay [11] and in [12] was “+” in each case.

The record behind these values is patent US6727076B2 (priority 1995, dated 2004).
